The record followed here is ChEMBL document CHEMBL1142777, “Identification of potent type I MetAP inhibitors by simple bioisosteric replacement. Part 1: Synthesis and preliminary SAR studies of thiazole-4-carboxylic acid thiazol-2-ylamide derivatives” (Bioorg Med Chem Lett, 2005).

Molecules are shown by their SMILES.

In assay [1] the target is T1, Methionine aminopeptidase (Escherichia coli K-12, UniProt P0AE18).
T1 sequence (P0AE18 whole entry): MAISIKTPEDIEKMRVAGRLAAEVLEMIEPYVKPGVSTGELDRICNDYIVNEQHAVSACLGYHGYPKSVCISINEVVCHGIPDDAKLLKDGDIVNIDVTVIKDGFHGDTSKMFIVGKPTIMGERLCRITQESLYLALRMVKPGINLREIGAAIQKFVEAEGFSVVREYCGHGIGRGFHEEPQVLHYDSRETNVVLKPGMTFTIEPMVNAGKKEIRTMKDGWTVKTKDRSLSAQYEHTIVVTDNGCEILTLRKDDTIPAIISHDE
As to the kind of experiment: Inhibitory concentration required against Escherichia coli MetAP1 (150 nM).

Assay [2] concerns the target T2, Methionine aminopeptidase 1 (Saccharomyces cerevisiae S288c, UniProt Q01662).
T2 sequence (Q01662 whole entry): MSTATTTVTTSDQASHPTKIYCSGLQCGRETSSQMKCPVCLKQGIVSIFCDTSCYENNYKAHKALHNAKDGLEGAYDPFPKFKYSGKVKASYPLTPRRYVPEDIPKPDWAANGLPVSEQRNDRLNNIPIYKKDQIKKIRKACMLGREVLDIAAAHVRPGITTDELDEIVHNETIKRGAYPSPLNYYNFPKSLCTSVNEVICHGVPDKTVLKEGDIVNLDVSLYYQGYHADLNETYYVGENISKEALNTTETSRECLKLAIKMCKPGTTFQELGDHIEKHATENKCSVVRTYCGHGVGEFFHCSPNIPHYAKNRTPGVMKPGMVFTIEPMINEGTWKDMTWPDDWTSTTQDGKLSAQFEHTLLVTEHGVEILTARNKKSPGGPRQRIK
As to the kind of experiment: Inhibitory concentration required against Saccharomyces cerevisiae MetAP1 (330 nM).

For `O=C(Nc1scnc1C(=O)Nc1nccs1)c1cccc(Cl)c1`, the results for the half-inhibitory concentration (IC50) in assay [1] and in assay [2] were 270 nM and 1830 nM, respectively.
In the same order, the values of `CN(C)CC(=O)Nc1scnc1C(=O)Nc1nccs1` are 300 nM and 10500 nM.
On to `CC(C)=CCC(=O)Nc1cccnc1C(=O)Nc1nccs1`, for which the IC50 (commonly the concentration that inhibits the measured activity by half) in assay [2] stood at 140 nM.
With `CC(C)(C)OC(=O)Nc1scnc1C(=O)Nc1nccs1`, the IC50 in assay [1] was 60 nM; in assay [2] it was 4620 nM.
As for `O=C(Nc1nccs1)c1ncsc1CCc1ccccc1`, the IC50 came to 65 nM in assay [1] and 660 nM in assay [2].
The like results for `CC(=O)OCC(=O)Nc1scnc1C(=O)Nc1nccs1` were, in that order, 76 nM and 2650 nM.
In the same order, the values of `O=C(Nc1nccs1)c1ncsc1Cc1ccc(F)cc1Cl` are 82 nM and 900 nM.
The like results for `O=C(Nc1nccs1)c1ncsc1-c1ccccc1` were, in that order, 210 nM and 3410 nM.
Turning to `CCC(=O)Nc1scnc1C(=O)Nc1nccs1`, the results for the IC50 in assay [1] and in assay [2] were 81 nM and 220 nM, respectively.
In the same order, the values of `COCC(=O)Nc1scnc1C(=O)Nc1nccs1` are 92 nM and 1530 nM.
In the same order, the values of `CCCCCc1scnc1C(=O)Nc1nccs1` are 160 nM and 980 nM.
With `CC(C)c1scnc1C(=O)Nc1nccs1`, the IC50 in assay [1] amounted to 220 nM; in assay [2] it was 7200 nM.
With `CC(C)=CCCC(C)Cc1scnc1C(=O)Nc1nccs1` (stereo not drawn), the IC50 came out at 170 nM in assay [1] and 2110 nM in assay [2].
On to `C=CCC(=O)Nc1scnc1C(=O)Nc1nccs1`, for which the values for the IC50 in assay [1] and in assay [2] were 54 nM and 2630 nM, respectively.
In the same order, the values of `O=C(O)CC(=O)Nc1scnc1C(=O)Nc1nccs1` are 88 nM and 4910 nM.
As for `COC(C)Cc1scnc1C(=O)Nc1nccs1` (stereo not drawn), the IC50 was found to be 74 nM in assay [1] and 880 nM in assay [2].
The like results for `O=C(CN1CCCCC1)Nc1scnc1C(=O)Nc1nccs1` were, in that order, 140 nM and 1450 nM.
`O=C(Nc1nccs1)c1cscn1`: the IC50 in assay [1] is 110 nM; in assay [2], 2260 nM.
As for `O=C(CN1CCCCC1)Nc1cccnc1C(=O)Nc1nccs1`, half-maximal inhibition in assay [1] (IC50) required 53 nM.
As for `Nc1scnc1C(=O)Nc1nccs1`, the IC50 in assay [1] was determined as 1970 nM; in assay [2], 13200 nM.
In the same order, the values of `CCOC(=O)CC(=O)Nc1scnc1C(=O)Nc1nccs1` are 66 nM and 670 nM.
In the same order, the values of `COc1ccccc1C(=O)Nc1scnc1C(=O)Nc1nccs1` are 190 nM and 3320 nM.
In the same order, the values of `O=C(CN1CCCC1)Nc1scnc1C(=O)Nc1nccs1` are 160 nM and 860 nM.
Turning to `CCCCCCCCCCCc1scnc1C(=O)Nc1nccs1`, the IC50 is 76500 nM in assay [1] and above 100000 nM in assay [2].
In the same order, the values of `C=CC(C)C(=O)Nc1scnc1C(=O)Nc1nccs1` (stereo not drawn) are 44 nM and 370 nM.
In the same order, the values of `O=C(Nc1nccs1)c1ncsc1Cc1ccccc1` are 170 nM and 3800 nM.
Regarding `COC(Cc1scnc1C(=O)Nc1nccs1)C(C)C` (stereo not drawn), the values for the IC50 in assay [1] and in assay [2] were 89 nM and 500 nM, respectively.
In the same order, the values of `O=C(Nc1nccs1)c1ncsc1NC(=O)C1CCCC1` are 24 nM and 130 nM.
In the same order, the values of `O=C(Nc1scnc1C(=O)Nc1nccs1)c1ccccc1F` are 76 nM and 990 nM.
In assay [1], `C=CCC(=O)Nc1cccnc1C(=O)Nc1nccs1` yielded an IC50 of 130 nM.
`Cc1scnc1C(=O)Nc1nccs1`: the IC50 in assay [1] was found to be 180 nM; in assay [2], 9820 nM.
In the same order, the values of `O=C(COCc1ccccc1)Nc1scnc1C(=O)Nc1nccs1` are 29 nM and 1120 nM.
The like results for `O=C(Nc1nccs1)c1ncsc1NC(=O)C1CCC1` were, in that order, 40 nM and 250 nM.
For `CCc1scnc1C(=O)Nc1nccs1`, the values for the IC50 in assay [1] and in assay [2] were 180 nM and 7640 nM, respectively.
Turning to `O=C(Nc1nccs1)c1ncsc1NC(=O)C1CC1`, the IC50 turned out to be 42 nM in assay [1] and 6380 nM in assay [2].
The like results for `O=C(Nc1scnc1C(=O)Nc1nccs1)c1ccc(F)cc1` were, in that order, 110 nM and 480 nM.
The like results for `O=C(CN1CCOCC1)Nc1scnc1C(=O)Nc1nccs1` were, in that order, 110 nM and 4710 nM.
In the same order, the values of `CC(C)Cc1scnc1C(=O)Nc1nccs1` are 100 nM and 990 nM.
